System: endothelium-denuded aorta from DOCA-salt and sham rats
Assay: Spontaneous tone of endothelium-denuded thoracic aorta in isolated tissue baths (isometric force)
Set-up: species or system rat
Method: Endothelial cell-denuded thoracic aorta, removed from pentobarbital (60 mg kg^-1, i.p.) anesthetized rats, were pair-mounted (Sham/DOCA) in isolated tissue baths for measurement of isometric force. (Florian and Watts (1999) Am. J. Physiol., 276: […]-[…]) Tissues were challenged with a maximal concentration of a adrenergic agonist, phenylephrine (PE) (10^-5 mol/L). IC87114 (ICOS Corporation, Bothell, Wash.) concentration response curves were generated by adding increasing concentrations of IC87114 (1×10^-9-3×10^-4 mol/L) with measurements of spontaneous tone taken every 30 minutes. Aortic strips from DOCA-salt rats were also exposed to 20 μmol/L IC87114 or vehicle for 1 hour and measurements of spontaneous tone were recorded. […] Tissues were under passive tension for optimal force production. […] The effect of IC87114 was reversible in all experiments, as spontaneous tone was restored upon washing out of IC87114. In further experiments using an IC87114 concentration equivalent to that used in previous experiments with LY294002 (20 μmol/L) (Example 1), IC87114 (20 μmol/L) or vehicle (0.1% DMSO) was incubated with aortic strips from DOCA-salt rats for 1 hour in isolated tissue baths.

Cc1ccccc1-n1c(Cn2cnc3c(N)ncnc32)nc2cccc(C)c2c1=O [IC87114, 2-(6-aminopurin-9-ylmethyl)-5-methyl-3-o-tolyl-3H-quinazolin-4-one]
effect on spontaneous tone in aorta from DOCA-salt rats, single concentration (20 μmol/L, 1 hour incubation, compared to vehicle (0.1% DMSO), P<0.05): significantly inhibits spontaneous tone development | effect of increasing concentrations on spontaneous tone in aorta from DOCA-salt rats (10^−9 to 3×10^−4 mol/L, absence of agonist, endothelium-denuded aortic strips): reduced spontaneous tone in a concentration-dependent manner | reversibility of effect on spontaneous tone upon washing out (aorta from DOCA-salt rats): reversible
